Entries after “also recorded” stand apart in the source; their conditions may differ.

The test system of test [1] is 5/6 nephrectomized (Nx) rat model. The experiment in a line: 5/6 nephrectomized (Nx) rat model, Compound XIV by gastric gavage once daily. The test is classed as in vivo, male Wistar rats. The note with it: Nx rats, p<0.01. From the text: Male 6 week-old Wistar rats were subjected to 5/6 nephrectomy or sham operations. Under fluothane anesthesia, renal ablation was achieved by removing two-thirds of the left kidney followed by a right unilateral nephrectomy 7 days later. Sham rats underwent exposition of the kidneys and removal of the perirenal fat. Animals that underwent the sham operation were given vehicle (saline) and were used as controls. Nx animals were divided in groups receiving the vehicle or Compound XIV. Saline or Compound XIV was given by gastric gavage once daily up to the sacrifice. Serum glucose was measured every three weeks in order to assess the effect of the compound on serum glucose concentration in a renal disease model. Rats were sacrificed at day 126.

Test [2] concerns streptozotocin-induced diabetes. The experiment in a line: Streptozotocin-induced diabetes model in rats, oral Compound I. It counts as in vivo, male Sprague Dawley rats. The method, then: Diabetes was induced by a single intraperitoneal administration of streptozotocin (65 mg/kg of body weight) in fasted male Sprague Dawley rats, weighing approximately 200-250 g. After 48 hours, rats with plasma glucose more than 10 mmole/L were enrolled and treated with vehicle or compounds. Streptozotocin is well known to induce […] toxicity. […] Ketonuria is a medical condition in which ketone bodies are present in the urine. It is seen in conditions in which the body produces excess ketones as an alternative source of energy. It is seen during starvation or more commonly in diabetes. […] Proteinuria is a medical condition in which an excess of protein is present in the urine. Proteinuria may be a sign of renal kidney damage. Since serum proteins are readily reabsorbed from urine, the presence of excess protein indicates either an insufficiency of absorption or impaired filtration. Diabetics may suffer from damaged nephrons and develop proteinuria. The most common cause of proteinuria is diabetes. […] Despite the available therapies of glycemic and blood pressure control, many patients continue to show progressive renal damage. Therefore, it is extremely important to identify novel interventions to halt the progression of diabetic nephropathy.

In test [3] the test system is diabetic mouse (db/db) model. The experiment in a line: Diabetic db/db uninephrectomized mouse model, oral Compound I. The note with it: 100 mg/kg per day oral; day 69 to day 128; FIG. 7. It counts as in vivo, male Lepr db (db/db) mice. The method, then: Male Lepr db (db/db) and age- and sex-matched control mice with the same genetic background (C57BL/6) were used. Animals were randomized using blood sugar measurement (5-hours starved) at week 6 and uninephrectomy (removal of right kidney) was performed. Sham animals (C57BL/6) underwent exposition of the right kidney. Animals that underwent the sham operation were given vehicle (saline) and were used as negative controls. C57BL/6 mice that were uninephrectomized were given vehicle and were used as positive controls. Db/db mice were treated with oral administration of compound I at 100 mg/kg per day for 131 days. Serum glucose was measured every two to four weeks. Oral glucose tolerance test was performed on 16-hours starved mice at day 112. […] Fluorescence was determined and GFR calculated based on a two-compartment model using nonlinear regression curve-fitting software.

`CCCCCCCCC(Oc1ccc(C(=O)CCCCCCC)cc1)C(=O)[O-].[Na+]` (racemic) [Compound XIV, Sodium (RS)-2-[4-octanoylphenoxy]decanoate]: the urinary proteins concentration result in test [1] (10 mg/kg, day 84 and 126, FIG. 6) was “significant (p<0.01) decrease”. Also, the serum glucose concentration entry in test [1] (50 mg/kg, day 42 to day 126, FIG. 5) is listed as “significant (p<0.01) decrease”.

Regarding `CCCCCc1cccc(CC(=O)[O-])c1.[Na+]` [Compound I], the “level of increase in blood glucose (delta)” value in test [2] (100 mg/kg oral, day 2 to day 62 post-streptozotocin, p<0.05, FIG. 1) was “decrease significantly”. The “urinary protein (proteinuria)” value in test [2] (100 mg/kg oral, vs STZ+ (diabetic) animals, FIG. 3) is on record as “completely abbrogated the presence of urinary protein”. Moreover, the “ketone bodies in urine” value in test [2] (streptozotocin-diabetic rats, treated vs untreated, p<0.05, FIG. 2) is given as “significantly reduce the appearance of ketone bodies in the urine; also recorded: significantly (p<0.05) reduced”. In addition, the “serum glucose concentration (percent increase vs C57BL/6 sham)” value in test [3] was “significant decrease”.

Source of the values: patent publication US20130225683A1, “Compounds and Pharmaceutical Compositions for Uses in Diabetes” (PROMETIC BIOSCIENCES INC., priority 2010, published 2013).
